The numbers were not newly measured in patent US20250221936A1, “ENGINEERED HEMICHANNELS, ENGINEERED VESICLES, AND USES THEREOF” (VIRGINIA TECH INTELLECTUAL PROPERTIES, INC., priority 2018, published 2025), which cites them from elsewhere.

Entries after “also recorded” stand apart in the source; their conditions may differ.

In one series the target is T1, Cx43 hemichannel (Homo sapiens, UniProt P17302).
T1 construct: expressed in transfected cells; host or cells: HeLa (Cx43-HeLa)
Particulars: 50 μM for 2 hrs; cited from earlier work.

In another series the test system is Cx43-Hela cells. Particulars: cited from earlier work.
For series [1], the system named is 8 mm wide circular excisional skin injuries. The note with it: 100 μM in 30% pluronic gel; 10-14 day time course; cited from earlier work.
The subject of series [2] is U87 MG glioblastoma cells. Particulars: cited from earlier work.

T1 sequence (P17302 2-382 limits assumed): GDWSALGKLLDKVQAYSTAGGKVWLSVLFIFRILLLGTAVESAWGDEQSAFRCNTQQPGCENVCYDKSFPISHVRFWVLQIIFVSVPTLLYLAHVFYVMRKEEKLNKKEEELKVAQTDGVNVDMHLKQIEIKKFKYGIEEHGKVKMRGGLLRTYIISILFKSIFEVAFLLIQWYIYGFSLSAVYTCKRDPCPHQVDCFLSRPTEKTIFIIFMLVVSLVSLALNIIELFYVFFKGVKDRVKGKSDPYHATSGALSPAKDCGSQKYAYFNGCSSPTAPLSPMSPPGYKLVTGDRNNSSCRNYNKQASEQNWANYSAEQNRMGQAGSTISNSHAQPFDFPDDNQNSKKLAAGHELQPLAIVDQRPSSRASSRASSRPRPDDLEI

In the case of VFFKGVKDRVKGRSD [JM2], the hemichannel activity result in the series with Cx43 hemichannel was “significantly reduced hemichannel activity”. Further, the “Cx43 GJ labeling” value in the series with Cx43-Hela cells (10 μM for 2, 6, and 24 hrs) was “displayed little GJ labeling; also recorded: GJ labeling began to return at 6 hrs, and appeared normal after 24 hrs”. Moreover, the microtubule organization result in the series with Cx43-Hela cells (2 hr) is “disruption of microtubule organization”.
For RQPKIWFPNRRKPWKKRPRPDDLEI [alpha CT1], the “healing of excisional injuries” value in series [1] is “closed faster, were less inflamed in appearance, healed faster and scarred less”. The aggregation entry in series [2] is given as “higher degree of aggregation”.
